{"source": "patent US20220054445A1", "about": "“THERAPEUTIC METHODS AND COMPOSITIONS FOR TREATING CANCER USING 6,8-BIS-BENZYLTHIO-OCTANOIC ACID AND AN AUTOPHAGY INHIBITOR” (Rafael Pharmaceuticals, Inc., priority 2018, published 2022)", "key": {"[1]": {"system": "K562 and MFL2 AML cells", "assay": "LC3-II blot for induction of autophagy in AML cells", "format": "cell-based", "settings": "CPI-613 200 μM, 4 hours", "description": "Complete media (“Full”) and Hank's Balanced Salt Solution medium (HBSS) were used as negative and positive controls of autophagy, respectively."}, "[2]": {"settings": "Pardee et al., Clin Cancer Res. 2014; cited from earlier work"}, "[3]": {"system": "BxPC-3 pancreatic cancer xenografts", "assay": "Human pancreatic cancer xenograft, oral dosing", "format": "in vivo, CD-1 nude mice", "settings": "oral dose of 100 mg/week for 4 weeks", "method": "An acclimation period of 7 days was allowed between the arrival of the animal at the study site before tumor inoculation and experimentation. Mice were inoculated subcutaneously (SC) in the right flank with 2×10^6 human H460 NSCLC or BxPC3 pancreatic cancer cells that were suspended in 0.1 mL of Dulbeco's Phosphate Buffered Salt (PBS) solution using a 1 cc syringe with a 27-5/8 gauge needle. Tumor dimensions (length and width) were measured daily before, during and after treatment (using Vernier calipers) and the tumor volume was calculated using the prolate ellipsoid formula: (length×width^2)/2. Treatment with test or control articles began 8 days post tumor cell implantation when the tumor was approximately 300 mm^3.\nA similar study was conducted in CD-1 nude mice (n=9) inoculated with 2×10^6 BxPC-3 cells. The study was initiated when tumors reached an average size of 150 mm^3 (day 0) and CPI-613 was administered at an oral dose of 100 mg/week for 4 weeks. A comparator arm (n=9) was conducted with IP treatment at a weekly dose of 25 mg/kg."}, "[4]": {"system": "human H460 NSCLC xenografts", "assay": "Human non-small cell lung cancer xenograft, oral dosing", "format": "in vivo, CD1-Nu/Nu female mice", "settings": "oral 100 mg/kg on day 8, 15, 22, 29 post implantation", "method": "Human H460 NSCLC cells were obtained from American Type Cell Culture (ATCC) (catalog no. HTB-177, Manassas, Va.). These cells tested negative for viral contamination using the Mouse Antibody Production (MAP) test, performed by Charles River Labs Molecular Division, upon the receipt of the tumor cells from ATCC. The tumor cells were maintained at 37° C. in a humidified 5% CO2 atmosphere in T225 tissue culture flasks containing 50 mL of Roswell Park Memorial Institute (RPMI)-1640 solution with 10% Fetal Bovine Serum (FBS) and 2 mM L-glutamine. Cells were split at a ratio of 1:10 every 2-3 days by trypsinization and resuspended in fresh medium in a new flask. Cells were harvested for experiments in the same way at 70-90% confluency.\nCD1-Nu/Nu female mice, ˜4-6 weeks old were obtained from Charles River Laboratories. Mice were housed 5 to a cage in a micro-isolator room in the Department of Animal Laboratory Research of New York State University (SUNY) at Stony Brook. Light-dark cycles were 12 h each daily, with light from 7 a.m. to 7 p.m. […]\nAn acclimation period of 7 days was allowed between the arrival of the animal at the study site before tumor inoculation and experimentation. […] Tumor dimensions (length and width) were measured daily before, during and after treatment (using Vernier calipers) and the tumor volume was calculated using the prolate ellipsoid formula: (length×width^2)/2. […]"}, "[5]": {"assay": "Animal studies of IV administration (toxicity)", "format": "in vivo", "method": "CPI-613 must be administered IV, via an IV catheter that is free flowing and free of air in the dead space of the IV catheter, to minimize vascular irritation, inflammation and acute toxicity of CPI-613. […] To avoid local reactions at and around the site of administration, CPI-613 must be administered via a central venous catheter.\nCPI-613 must not be administered as a bolus, but by infusion, at a rate of ˜0.5 mL/min, via a central venous catheter with D5W running at a rate of about 125-150 mL/hr. This is to minimize potential acute toxicity of CPI-613, according to animal studies."}, "[6]": {"system": "HS-MM cells", "assay": "DALGreen autophagy detection in HS-MM cells", "format": "cell-based", "settings": "16 hours", "method": "HS-MM cells (Sonobe H. et al., J. Pathol., 1993, 169, 317-322; Sonobe H. et al., J. Pathol., 1999, 187, 594-597) were cultured with Dulbecco's modified Eagle's medium (DMEM; Gibco Life Technologies, Grand Island, N.Y., USA) containing 10% heat-inactivated fetal bovine serum (FBS). Cells were incubated with […] autophagy detection agent (Dojindo Co., Kumamoto, Japan) according to the manufacturer's protocol (https://www.dojindo.com/TechnicalManual/Manual_[…].pdf). The […]-treated cells were then incubated with vehicle (DMEM+10% heat-inactivated FBS containing the same amount of DMSO and distilled water present in the corresponding CPI-613 and chloroquine experiments), CPI-613 (added […] of a 5 mg/mL solution of CPI-613 in DMSO per mL of medium to provide a 1 μg/mL concentration of CPI-613 in the medium), or the combination of CPI-613 (1 μg/mL as above) and chloroquine (added 2 μL of a 5 mg/mL solution of chloroquine in distilled water per mL of medium to provide a 10 μg/mL concentration of chloroquine in the medium) at 37° C. under 5% CO2 for 16 hours, and then visualized under a confocal fluorescence microscope (Leica TCS SP8; Leica Corporation, Germany) and analyzed with a Guava Easy-Cyte cell analyzer ([…], Calif., USA)."}, "[7]": {"assay": "Plasma pharmacokinetics and oral bioavailability of formulations", "design": "species or system BALB/c nude mice", "settings": "mouse, in vivo", "method": "Six groups of 16 BALB/c nude mice (8 males and 8 females) per group were administered 6,8-bis-benzylthio-octanoic acid in six different ways: (1) 5 μL/g IV injection (tail vein) of the triethanolamine/dextrose aqueous solution of Example 18 (25 mg/kg; 5 mL/kg; Ex. 18A); (2) 5 μL/g IP injection of the triethanolamine/dextrose aqueous solution of Example 18 (25 mg/kg; 5 mL/kg; 18A); (3) 5 μL/g oral administration of the Eudragit L100 SDD suspension of Example 18 (100 mg/kg; 5 mL/kg; 18B); (4) 5 μL/g oral administration of the HPMCAS-M SDD suspension of Example 18 (100 mg/kg; 5 mL/kg; 18C); (5) 5 μL/g oral administration of the 20 mg/mL 6,8-bis-benzylthio-octanoic acid suspension of Example 18 (100 mg/kg; 5 mL/kg; 18D); or (6) 10 μL/g oral administration of the 10 mg/mL SOLUTOL solution of Example 18 (100 mg/kg; 10 mL/kg; 18E). In each experiment, about 80 μL of blood was collected from one subgroup of 4 male and 4 female mice at 0.083, 1, 4, and 24 hours after dosing, and from the other subgroup of 4 male and 4 female mice at 0.5, 2, and 8 hours. Plasma from the collected blood samples was analyzed by LC-MS/MS for the presence of 6,8-bis-benzylthio-octanoic acid."}, "[8]": {"system": "HS-MM cells", "assay": "Annexin V / propidium iodide cell death staining in HS-MM cells", "format": "cell-based", "settings": "necrostatin-1 5, 10 or 50 μM with CPI-613 1 μg/mL + chloroquine 10 μg/mL", "method": "HS-MM cells (Sonobe H. et al., J. Pathol., 1993, 169, 317-322; Sonobe H. et al., J. Pathol., 1999, 187, 594-597) were cultured with Dulbecco's modified Eagle's medium (DMEM; Gibco Life Technologies, Grand Island, N.Y., USA) containing 10% heat-inactivated fetal bovine serum (FBS). Cells were incubated with vehicle (DMEM+10% heat-inactivated FBS containing the same amount of DMSO and distilled water present in the corresponding CPI-613, chloroquine, and necrostatin-1 experiments), chloroquine (10 μg/mL), CPI-613 (1 μg/mL or 10 μg/mL), the combination of chloroquine (10 μg/mL) and CPI-613 (100 ng/mL, 1 μg/mL, or 10 μg/mL), or the combination of chloroquine (10 μg/mL) and CPI-613 (1 μg/mL) in the presence of necrostatin-1 (5 μM, 10 μM, or 50 μM), and then double stained with a fluorescein isothiocyante (FITC)-conjugated Annexin V and propidium iodide (PI) (PromoCell GMbH, Heidelberg, Germany) followed by analysis with a confocal fluorescence microscope and cell analyzer. The chloroquine and CPI-613 were added to the media from 5 mg/mL stock solutions in distilled water or DMSO, respectively, as in Example 11. The necrostatin-1 was added to the media from a 5 mg/mL stock solution in DMSO."}}}
{"molecule": "O=C(O)CCCCC(CCSCc1ccccc1)SCc1ccccc1", "note": "(stereo not shown) [6,8-bis-benzylthio-octanoic acid]", "values": [{"measurement": "induction of autophagy (LC3-II blot)", "setting": "[1]", "result": "induces autophagy in AML cells"}, {"measurement": "half-life after IV dosing", "setting": "[2]", "result": "1 to 2", "unit": "h"}, {"measurement": "tumor growth effect", "setting": "[3]", "result": "especially pronounced"}, {"measurement": "tumor growth versus 5% dextrose or untreated", "setting": "[4]", "result": "grew much more slowly"}, {"measurement": "acute toxicity with extra air in dead space of IV catheter", "setting": "[5]; accidental co-administration of air during IV administration, animal studies", "result": "potential to induce acute toxicity"}, {"measurement": "local reaction on leakage into the perivascular space", "setting": "[5]; in vivo, iv", "result": "can induce significant local inflammation"}, {"measurement": "induction of autophagy (DALGreen fluorescence)", "setting": "[6]; CPI-613 1 μg/mL", "result": "induces autophagy in HS-MM cells"}, {"measurement": "oral bioavailability (conclusion in words)", "setting": "[7]", "result": "orally bioavailable"}]}
{"molecule": "CCN(CC)CCCC(C)Nc1ccnc2cc(Cl)ccc12", "note": "(stereo not shown) [chloroquine, reference compound]", "values": [{"measurement": "blocking of CPI-613 autophagy induction", "setting": "[6]; chloroquine 10 μg/mL with CPI-613 1 μg/mL", "result": "autophagy induction can be blocked"}]}
{"molecule": "CN1C(=O)C(Cc2c[nH]c3ccccc23)NC1=S", "note": "(stereo not shown) [necrostatin-1]", "values": [{"measurement": "effect on cell death induced by CPI-613 plus chloroquine", "setting": "[8]", "result": "did not affect cell death"}]}
